Patent publication EP1143981B1, “USE OF N-GLYCOLNEURAMINIC ACID AND ITS DERIVATIVES FOR THE MANUFACTURE OF A MEDICAMENT FOR THE TREATMENT OF HIV INFECTIONS” (Glukor, Inc., priority 1998, dated 2000)
Where two headings read alike, the source gives them in different places.

What was measured:
[1] = tested on: HIV-1 MN; type: cell-based
Procedure: Test groups included uninfected PBMCs, infected PBMCs with no N-glycolylneuraminic acid, and infected PBMCs plus N-glycolylneuraminic acid. […] Excess virus was removed by washing the cells with PBS one time then the cells were exposed to N-glycolylneuraminic acid. P24 output was measured using the DuPont P24 assay kit (optical density (OD) in Table 15). Syncytia formation was examined as well as cytopathic effects (CPE). […] Sample #7 (p24 123x10^6 pg HIV-1P24/ml) was excluded from the mean P24 output calculation due to a sampling error. […]

[2] = tested on: HIV-1 IIIB; assay: HIV-1 P24 output, test solutions added post infection; type: cell-based; conditions: Human immunodeficiency virus 1, IIIB; endpoint of the inhibition; read-out: lowest effective concentration for inhibition of HIV p24 output
Procedure: In addition, a similar experiment was performed, except that test solutions were added post infection, at the time of plating into the triplicate wells.

[3] = tested on: X4 strain LAI/IIIB; assay: RT activity in infected PBMCs over 20 days post-infection; type: cell-based
Procedure: Reverse Transcriptase Activity Assay: A microtiter based reverse transcriptase (RT) reaction was utilized as described by Buckheit et al., (1991), AIDS Research and Human Retroviruses, 7:295-302. Tritiated thymidine triphosphate (^3H-TTP) was suspended in distilled H2O at 5 Ci/mL. Poly rA and oligo dT were prepared as a stock solution which was kept at -20°C. RT reaction buffer was prepared fresh on a daily basis and contained 125 µL 1M EGTA, 125 µL dH2O, 110 µL 10% SDS, 50 µL 1M Tris (pH 7.4), 50 µL 1M DTT, and 40 µL 1M MgCl2. These three solutions were mixed together in a ratio of 2 parts ^3H-TTP, 1 part poly rA:oligo dT, and 1 part reaction buffer. Ten microliters of this reaction mixture were placed in a round bottom microtiter plate and 15 µL of virus containing supernatant were added and mixed. The plate was incubated at 37°C in a water bath with a solid support to prevent submersion of the plate and incubated for 60 minutes. After the incubation period, the reaction volume was spotted onto pieces of DE81 paper, washed 5 times for 5 minutes each in a 5% sodium phosphate buffer, 2 times for 1 minute each in distilled water, 2 times for 1 minute each in 70% ethanol, and then dried. Opti-Fluor-O (Packard) was added to each sample and incorporated radioactivity was quantified utilizing a Wallac 1450 MicroBeta Plus liquid scintillation counter. Plates were screened with tetrazolium dye staining as described above.
PBMCs were treated with dilutions of LUKOR of 1:4, 1:20, 1:100, 1:500, or 1:2500, or concentrations ofN-glycolylneuraminic acid or N-acetylneuraminic acid of 0.4, 1.2, 3.6, 11, or 33µg/ml. No carbohydrates were added to the control sample. RT activity was determined at 3, 6, 9,13, 17, and 20 days post-infection (PI) with X4 strain LAI/IIIB.

[4] = tested on: HIV-1IIIB; assay: PBMC cell-based anti-HIV assay; conditions: PBMCs; laboratory strain
Procedure: For the standard PBMC assay, PHA-P stimulated cells from at least two normal donors were pooled, diluted in fresh medium to a final concentration of 1 x 10^6 cells/mL, and plated in the interior wells of a 96 well round bottom microplate at 50 µL/well (5 x 10^4 cells/well). Test drug dilutions were prepared at a 2X concentration in microfuge tubes and 100 µL of each concentration was placed in appropriate wells in a standard format. A predetermined dilution of virus stock was placed in each test well (50 µL, final MOI ≅ 0.1). Wells with cells and virus alone were used for virus control. Separate plates were prepared identically without virus for drug cytotoxicity studies using an XTT assay system. The PBMC cultures were maintained for seven days following infection, at which time cell-free supernatant samples were collected and assayed for reverse transcriptase activity as described below.
Reverse Transcriptase Activity Assay: A microtiter based reverse transcriptase (RT) reaction was utilized as described by Buckheit et al., (1991), AIDS Research and Human Retroviruses, 7:295-302. Tritiated thymidine triphosphate (^3H-TTP) was suspended in distilled H2O at 5 Ci/mL. […] Opti-Fluor-O (Packard) was added to each sample and incorporated radioactivity was quantified utilizing a Wallac 1450 MicroBeta Plus liquid scintillation counter. […]

## O=C(CO)N[C@H]1[C@H]([C@H](O)[C@H](O)CO)OC(O)(C(=O)O)C[C@@H]1O (some centres unmarked) [N-glycolylneuraminic acid]
[1]; Neu5Gc dilution 1:2
  CPE: negative
  O.D.: 0.017
  P-24: 320 picograms HIV-1 p24 per mL
  Syncytia: negative
[1]; Neu5Gc dilution 1:4
  CPE: negative
  O.D.: 0.043
  P-24: 922 picograms HIV-1 p24 per mL
  Syncytia: negative
[1]; Neu5Gc dilution 1:8
  CPE: negative
  O.D.: 0.057
  P-24: 871 picograms HIV-1 p24 per mL
  Syncytia: negative
[1]; Neu5Gc dilution 1:16
  CPE: negative
  O.D.: 0.061
  P-24: 824 picograms HIV-1 p24 per mL
  Syncytia: negative
[1]; Neu5Gc dilution 1:32
  CPE: negative
  O.D.: 0.012
  P-24: 265 picograms HIV-1 p24 per mL
  Syncytia: negative
[1]; Neu5Gc dilution 1:64
  CPE: negative
  O.D.: 0.041
  P-24: 865 picograms HIV-1 p24 per mL
  Syncytia: negative
[1]; human, pbmcs
  cell viability: 25%
[1]; samples treated with N-glycolylneuraminic acid (corrected for dilution factor)
  Mean p24 output: 624± 326 pg HIV-1P24/ml
[2]
  minimal effective concentration: 0.003 µg/mL
[3]; 0.4 µg/ml, 3 days PI
  RT Activity: 53
[3]; 0.4 µg/ml, 6 days PI
  RT Activity: 113
[3]; 0.4 µg/ml, 9 days PI
  RT Activity: 1342
[3]; 0.4 µg/ml, 13 days PI
  RT Activity: 1371
[3]; 0.4 µg/ml, 17 days PI
  RT Activity: 1509
[3]; 0.4 µg/ml, 20 days PI
  RT Activity: 1250
[3]; 3.6 µg/ml, 3 days PI
  RT Activity: 45
[3]; 3.6 µg/ml, 6 days PI
  RT Activity: 44
[3]; 3.6 µg/ml, 9 days PI
  RT Activity: 139
[3]; 3.6 µg/ml, 13 days PI
  RT Activity: 428
[3]; 3.6 µg/ml, 17 days PI
  RT Activity: 1262
[3]; 3.6 µg/ml, 20 days PI
  RT Activity: 616
[3]; 11 µg/ml, 3 days PI
  RT Activity: 40
[3]; 11 µg/ml, 6 days PI
  RT Activity: 75
[3]; 11 µg/ml, 9 days PI
  RT Activity: 956
[3]; 11 µg/ml, 13 days PI
  RT Activity: 2544
[3]; 11 µg/ml, 17 days PI
  RT Activity: 3261
[3]; 11 µg/ml, 20 days PI
  RT Activity: 1411
[3]; 33 µg/ml, 3 days PI
  RT Activity: 32
[3]; 33 µg/ml, 6 days PI
  RT Activity: 75
[3]; 33 µg/ml, 9 days PI
  RT Activity: 567
[3]; 33 µg/ml, 13 days PI
  RT Activity: 1103
[3]; 33 µg/ml, 17 days PI
  RT Activity: 2356
[3]; 33 µg/ml, 20 days PI
  RT Activity: 2917
[3]; all dilutions/concentrations, 3-20 days PI
  RT activity in treated cells (summary in words): RT activity was decreased
[4]
  anti-HIV activity: inactive
